Patent EP0430300A2, “Xanthine derivatives, their production and use” (Takeda Chemical Industries, Ltd., priority 1989, dated 1991)

Target: T1, Angiotensin II receptor (Bos taurus, UniProt P25104)
T1 construct: Angiotensin II receptor membrane fractions were prepared from bovine adrenal cortex; from tissue; host or cells: bovine adrenal cortex membrane fraction
T1 sequence (P25104 1-359): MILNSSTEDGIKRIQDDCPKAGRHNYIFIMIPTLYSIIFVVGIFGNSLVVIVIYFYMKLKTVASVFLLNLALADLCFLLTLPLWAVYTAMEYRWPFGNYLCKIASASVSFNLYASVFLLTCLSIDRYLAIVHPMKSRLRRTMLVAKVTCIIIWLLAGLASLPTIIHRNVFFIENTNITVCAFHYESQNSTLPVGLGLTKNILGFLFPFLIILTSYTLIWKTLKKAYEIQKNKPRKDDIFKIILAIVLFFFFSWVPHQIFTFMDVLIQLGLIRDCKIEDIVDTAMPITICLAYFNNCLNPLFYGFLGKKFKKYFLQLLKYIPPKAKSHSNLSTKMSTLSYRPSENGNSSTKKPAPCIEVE
Assay: Inhibitory effect on binding of angiotensin II to angiotensin receptor (125I-AII radioligand binding, membrane fractions)
Settings: A II receptor membrane fraction from bovine adrenal cortex, room temperature, one hour, compound 10^-9-3x10^-5 M, read-out: Inhibitory Activity against Binding of Angiotensin II IC50
Procedure: Inhibitory assay for the binding of angiotensin II to angiotensin receptor was conducted by modifying a method as described by Douglas et al. (Endocrinology, 102, 685-696 (1978)).
Angiotensin II receptor membrane fractions were prepared from bovine adrenal cortex.
The compound (I) of the present invention (10^-9-3x10^-5 M) and […] (^125I-AII) (1.8kBq/50µl) were added to the A II receptor membrane fraction and incubated at room temperature for one hour. The bound and free ^125I-AII were separated by a filter (Whatman GF/B filter) each other. The radioactivity of ^125I-All bound on the receptor was measured.

SMILES	IC50 [nM]
Cn1c(=O)c2c(nc(C3CC3)n2Cc2ccc(-c3ccccc3-c3nn[nH]n3)cc2)n(C)c1=O [Compound 8]	600
Cn1c(=O)c2c(nc(C3CCCC3)n2Cc2ccc(-c3ccccc3-c3nn[nH]n3)cc2)n(C)c1=O [Compound 9]	940
Cn1c(=O)c2c(nc(Cc3ccccc3)n2Cc2ccc(-c3ccccc3-c3nn[nH]n3)cc2)n(C)c1=O [Compound 10]	3400
CCCCSc1nc2c(c(=S)n(C)c(=O)n2C)n1Cc1ccc(-c2ccccc2-c2nn[nH]n2)cc1 [Compound 17]	760
CCCSc1nc2c(c(=S)n(C)c(=O)n2C)n1Cc1ccc(-c2ccccc2-c2nn[nH]n2)cc1 [Compound 19]	1500
CCCSc1nc2c(c(=O)n(C)c(=S)n2C)n1Cc1ccc(-c2ccccc2-c2nn[nH]n2)cc1 [Compound 20]	1500
CCCc1nc2c(c(=O)n(CC)c(=O)n2CCC)n1Cc1ccc(-c2ccccc2-c2nn[nH]n2)cc1 [Compound 21]	560
CCCCc1nc2c(c(=O)n(CC)c(=O)n2CCC)n1Cc1ccc(-c2ccccc2-c2nn[nH]n2)cc1 [Compound 22]	840
CCCCc1nc2c(c(=O)n(CCC)c(=O)n2CCC)n1Cc1ccc(-c2ccccc2-c2nn[nH]n2)cc1 [Compound 23]	1100
CCCCSc1nc2c(c(=O)n(CCC)c(=O)n2CCC)n1Cc1ccc(-c2ccccc2-c2nnn[nH]2)cc1 [Compound 25]	560
CCCCSc1nc2c(c(=O)n(CC)c(=O)n2CCC)n1Cc1ccc(-c2ccccc2-c2nnn[nH]2)cc1 [Compound 26]	2000
CCCCc1nc2c(c(=O)n(CCCC)c(=O)n2CCCC)n1Cc1ccc(-c2ccccc2-c2nnn[nH]2)cc1 [Compound 27]	2100
CCCCc1nc2c(c(=O)n(CCCC)c(=O)n2C)n1Cc1ccc(-c2ccccc2-c2nnn[nH]2)cc1 [Compound 29]	1000
CCOc1nc2c(c(=O)n(CC)c(=O)n2CC)n1Cc1ccc(-c2ccccc2-c2nnn[nH]2)cc1 [Compound 35]	1100

The next compounds have a lower IC50 than those just listed; values first:

IC50 [nM]	SMILES
380	CCC=CCc1nc2c(c(=O)n(CCC)c(=O)n2CCC)n1Cc1ccc(-c2ccccc2-c2nnn[nH]2)cc1 [Compound 30]
330	CC(Cc1nc2c(c(=O)n(C)c(=O)n2C)n1Cc1ccc(-c2ccccc2-c2nn[nH]n2)cc1)c1ccccc1 (stereo not shown) [Compound 12]
330	Cn1c(=O)c2c(nc(CCCCc3ccccc3)n2Cc2ccc(-c3ccccc3-c3nn[nH]n3)cc2)n(C)c1=O [Compound 14]
280	CCCCc1nc2c(c(=O)n(C)c(=O)n2C)n1Cc1ccc(-c2ccccc2-c2nnn[nH]2)cc1 [Compound 1]
280	CCCCSc1nc2c(c(=O)n(C)c(=O)n2C)n1Cc1ccc(-c2ccccc2C(=O)O)cc1 [Compound 33]
190	CCCCc1nc2c(c(=O)n(CCC)c(=O)n2CCCC)n1Cc1ccc(-c2ccccc2-c2nnn[nH]2)cc1 [Compound 28]
170	CCCc1nc2c(c(=O)n(C)c(=O)n2C)n1Cc1ccc(-c2ccccc2-c2nn[nH]n2)cc1 [Compound 5]
150	CC(C)Cc1nc2c(c(=O)n(C)c(=O)n2C)n1Cc1ccc(-c2ccccc2-c2nn[nH]n2)cc1 [Compound 15]
130	CCCCSc1nc2c(c(=O)n(C)c(=O)n2C)n1Cc1ccc(-c2ccccc2-c2nnn[nH]2)cc1 [Compound 34]
110	CCCCc1nc2c(c(=O)n(CC)c(=O)n2CC)n1Cc1ccc(-c2ccccc2-c2nnn[nH]2)cc1 [Compound 31]
65	Cn1c(=O)c2c(nc(-c3ccccc3)n2Cc2ccc(-c3ccccc3-c3nn[nH]n3)cc2)n(C)c1=O [Compound 7]
62	CCCCCc1nc2c(c(=O)n(C)c(=O)n2C)n1Cc1ccc(-c2ccccc2C(=O)O)cc1 [Compound 4, 7-(2'-Carboxybiphenyl-4-yl)methyl-8-n-pentyl-1,3-dimethylxanthine]
49	CCOc1nc2c(c(=O)n(C)c(=O)n2C)n1Cc1ccc(-c2ccccc2-c2nnn[nH]2)cc1 [Compound 2, 8-Ethoxy-1,3-dimethyl-7-[[2'-(1 H-tetrazole-5-yl)-biphenyl-4-yl)methyl)xanthine]
49	CCCCc1nc2c(c(=O)n(C)c(=S)n2C)n1Cc1ccc(-c2ccccc2-c2nn[nH]n2)cc1 [Compound 13]
